Source: patent publication US7045311B2, “Whole cell assay systems for cell surface proteases” (Monogram Biosciences, Inc., priority 2001, dated 2006)
“Also recorded” adds a separate entry of the source.

Tests used:
Format in all cases: cell-based
ADAM 17 = target: T1, ADAM 17 (Homo sapiens, UniProt P78536); assay: Whole cell ADAM 17 assay: cleavage of TNF-α-FL by THP-1 cells, capillary electrophoresis; settings: for formation of TNF-α-FL cleavage product (ADAM 17 activity): TNF-α-FL substrate, reagent added to the assay
T1 construct: endogenous in cells; host or cells: THP-1 cells (whole, live)
T1 sequence (P78536 215-824): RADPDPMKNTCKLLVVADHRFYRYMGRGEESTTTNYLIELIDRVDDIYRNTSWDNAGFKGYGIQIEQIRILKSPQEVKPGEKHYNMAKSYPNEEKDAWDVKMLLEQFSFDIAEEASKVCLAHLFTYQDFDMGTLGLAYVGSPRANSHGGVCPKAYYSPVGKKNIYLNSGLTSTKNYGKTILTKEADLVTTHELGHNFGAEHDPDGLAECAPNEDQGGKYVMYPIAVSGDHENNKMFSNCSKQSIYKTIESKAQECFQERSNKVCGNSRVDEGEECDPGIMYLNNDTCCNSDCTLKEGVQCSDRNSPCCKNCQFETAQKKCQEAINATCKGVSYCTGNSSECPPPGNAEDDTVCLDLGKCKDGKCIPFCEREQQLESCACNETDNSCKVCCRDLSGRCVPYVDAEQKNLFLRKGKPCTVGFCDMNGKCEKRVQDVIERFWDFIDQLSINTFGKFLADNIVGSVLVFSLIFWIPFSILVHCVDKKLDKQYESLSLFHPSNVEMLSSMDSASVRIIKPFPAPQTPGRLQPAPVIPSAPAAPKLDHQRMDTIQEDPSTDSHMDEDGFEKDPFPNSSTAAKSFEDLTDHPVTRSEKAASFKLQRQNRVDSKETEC
Procedure: A substrate for a cell surface protease, typically an ADAM, or preferably a plurality of substrates for different proteases, each having a distinct detectable label, is added to a live cell suspension in a buffer. Typically, about 1.5×10^5 cells are used in 50 μL medium. […] The cells are washed three times on ice with buffer (lacking the protein and anti-proteases noted below) before use. A suitable buffer consists of 50 mM HEPES (pH 7.2), 150 mM NaCl, 2 mM MgCl2, 0.1% human serum albumin (HSA), with serine and thiol protease inhibitor cocktail (Roche Diagnostics). Depending on the peptide, nonspecific binding may be blocked by addition of a protein selected from human serum albumin (HSA), bovine serum albumin (BSA), casein (CAS), gamma globulins (GG), and fetal bovine serum (FBS).
All component additions are done on ice, and the tubes are then transferred to a temperature controlled water bath for incubation. The assay mixture is incubated at a fixed temperature for a fixed time, e.g., 37° C. for 1 hr. Following incubation, the tubes are removed from the incubator and placed again on ice.
For experiments employing additional reagents, such as a GPCR agonist or a protein kinase C stimulator such as PMA (phorbol myristate acetate), the additional reagent is added at the beginning of the incubation period.
A suitable separation medium consists of 1% PEO in 50 mM HEPES (pH 7.2). […] In a typical separation, detection occurs at 5 mm down from the injection site (cross), an argon-ion laser is used as the excitation source, PMT is typically set at 600V to 900V, and gain is set to 5 μA/V at a frequency of 10 Hz. The 10× objective is used, and the sampling rate is 200/sec. Well volumes are typically 2 μL.
For peak analysis, time normalized peak areas for peptide cleavage products are divided by time normalized fluorescein (or aminomethyl fluorescein) peak areas to arrive at the product/fluorescein normalized area ratios.
A TNF-α peptide fragment, known to be a substrate for ADAM 17, was labeled at the N-terminus with fluorescein. […] After a one-hour incubation, aminomethyl fluorescein was added as an electrophoretic marker, and the reaction supernatant was separated by capillary electrophoresis.

ADAM 10 [1] = assay: Whole cell ADAM 10 assay: cleavage of CD40L-FL by Rat-1 cells with GPCR ligands; settings: CD40L-FL substrate
Procedure: (§1) For experiments involving GPCR's, adherent cells are plated into 96-well plates at 5×10^4 cells/well and serum starved for 18–24 hr prior to use. A suitable buffer comprises 10 mM HEPES (pH 7.2), 1× HANKS, 0.1% human serum albumin (HSA), and serine/thiol protease inhibitor cocktail (Roche Diagnostics). Cells are washed three times with the HANKS-HEPES buffer, lacking protein and anti-protease, prior to use.
(§2) The products of the assays are conveniently analyzed by capillary electrophoresis on a microfluidic LabCard™ (ACLARA Biosciences, Inc.). Typically, a LabCard™ containing a 64-channel array is used, but no special changes are needed to run the assay on a 96- or 32-channel card, or other configuration.
(§3) The configuration of channels for each separation on a LabCard is shown schematically in FIG. 13. The channel network may be a double-T network as shown or a cross network, i.e. where wells 110 and 114 in the figure are directly opposed. A suitable separation medium consists of 1% PEO in 50 mM HEPES (pH 7.2). In a typical separation, sample is injected from well 110 to well 114 at an injection voltage of 550V for e.g. 35 sec. Separation is carried out from well 104 to well 106 for e.g. 20 sec., with the voltages of 0V, 380V, 800V, and 380V in wells 104, 110, 106, and 114, respectively, resulting in a field strength of 455V/cm. […]

ADAM 10 [2] = assay: Whole cell ADAM 10 assay in HEK-293 cells
Procedure: as §1, §2, §3

| Compound | formation of TNF-α-FL cleavage product (ADAM 17 activity) (ADAM 17) | ADAM 10 activity (amount of CD40L-FL cleavage product) (ADAM 10 [1]) | ADAM 10 activity (ADAM 10 [2]) | other results |
| --- | --- | --- | --- | --- |
| CNC(=O)[C@H](Cc1c[nH]c2ccccc12)NC(=O)[C@@H](CC(=O)NO)CC(C)C [GM6001] | completely inhibited | – | – | – |
| lysophosphatidic acid [LPA] | – | increased | – | – |
| C[N+](C)(C)CCOC(N)=O [carbachol] | – | – | activated | – |
| OC[C@H]1O[C@@](CO)(O[C@H]2O[C@H](CO)[C@@H](O)[C@H](O)[C@H]2O)[C@@H](O)[C@@H]1O [sucrose] | – | – | – | TNF-α-FL cleavage activity on addition of sucrose in the presence of PMA (ADAM 17; 450 mM sucrose with PMA): restored the activity |
| endothelin-1: known ligand for GPCRs (CSCSSLMDKECVYFCHLDIIW) | – | decreased | – | – |
| CCCCCCCCCCCCCC(=O)O[C@@H]1[C@@H](C)[C@@]2(O)[C@@H](C=C(CO)C[C@]3(O)C(=O)C(C)=C[C@@H]23)[C@@H]2C(C)(C)[C@]12OC(C)=O [PMA, phorbol myristate acetate] | significantly lower; also recorded: significantly reduced | – | decline | – |
